Measured values taken from patent US11925607B2, “Ketamine composition for use in a method of treatment of depression by pulmonary administration” (Celon Pharma S.A., priority 2018, dated 2024).

Tests used:
[1] = cited from earlier work
[2] = nebulized esketamine hydrochloride saline solution; cited from earlier work
[3] = tested on: patients with treatment-resistant depression; conditions: cited from earlier work
[4] = cited from earlier work; remark: listed apart in the source
NMDA receptor = conditions: cited from earlier work
healthy volunteers = assay: Adverse effects monitoring in clinical study, assessed by a psychiatrist; format: in vivo, human; conditions: pulmonary administration
Method: Both in Part A and Part B of the study the adverse effects were monitored and assessed by a psychiatrist. The summary of the adverse effects is presented in FIG. 10 (Part A) and FIG. 11 (Part B). […] Psychomimetic effects were transient, lasting up to 30 minutes following administration. […] In Part C of the study adverse effects were monitored and assessed by a psychiatrist after each sequence of administration, i.e. on Day 1, Day 4, Day 8 and Day 11. The summary of adverse effects for Part C is presented on FIGS. 12A to 12D for Day 1, Day 4, Day 8 and Day 11, respectively. […] Psychomimetic effects were transient, lasting up to 30 minutes following administration.

[5] = Pharmacokinetics of inhaled esketamine dry powder in healthy volunteers, clinical study; format: in vivo, human; conditions: pulmonary administration, overall conclusion
Method: Esketamine hydrochloride dry powder formulation of Example 2 was administered to healthy volunteers pulmonary, i.e. directly to the lungs using dry powder inhaler (DPI) (by self-administration), under supervision of medical personnel.
One puff of dry powder formulation contained 4.6 mg of esketamine hydrochloride, corresponding to 4 mg of esketamine free base and excipients 18.22 mg of lactose monohydrate and 0.18 mg of magnesium stearate.
A single dose was an inhalation events consisting of 1 to 6 puffs, i.e. 4 to 24 mg of esketamine free base nominal dose.
In part A of the study, designed as a one-centre single ascending dose, the medicine was delivered in a single dose once in one day (up to 6 consecutive puffs) to 18 healthy volunteer subjects. Subjects were divided into 6 cohorts, cohorts receiving 1, 2, 3, 4, 5 or 6 puffs in a single dose (inhalation event), respectively. Collection of blood samples for determination of esketamine and esnorketamine metabolite concentration and calculation of pharmacokinetic parameters was performed for 24 hours following the start of the test in the administration day. The aim of the study was to determine the amount of puffs in an inhalation event needed to obtain plasma concentration similar to that sufficient to achieve antidepressant effect as for 0.20 mg/kg 40 minutes intravenous infusion. […]

[6] = 0.20 mg/kg 40 minutes intravenous infusion, predicted from literature data; cited from earlier work
[7] = after intravenous infusion of racemic ketamine
[8] = after oral administration of ketamine

Structure (SMILES): CNC1(c2ccccc2Cl)CCCCC1=O (racemic) [ketamine]
- half-period of concentration fall ([1]; after intravenous infusion 0.5 mg/kg for 40 minutes): below 2 hours
- systemic concentration of parent drug ([1]; intravenous infusion 0.5 mg/kg for 40 minutes, maintained about 40 minutes): about 200 ng/ml
- inhaled bioavailability [2]: reduced
- fraction of patients with treatment-resistant depression responsive ([3]; human, in vivo): about ⅔
- bioavailability ([4]; orally administered): 16-20%

Structure (SMILES): NC1(c2ccccc2Cl)CCCCC1=O (centres unmarked) [norketamine]
- maximum concentration as % of ketamine concentration [1, 7]: 10-20%
- percentage of AUC norketamine to ketamine [1, 7]: 20-40%
- activity on NMDA receptor relative to ketamine (NMDA receptor): many times less active than ketamine
- AUC as % of ketamine [4, 8]: exceeding 1000%
- level as % of ketamine level [4, 8]: 500-1000%

Structure (SMILES): CN[C@]1(c2ccccc2Cl)CCCCC1=O [esketamine]
- safety of plasma concentration profile (healthy volunteers): safe for chronic administration
- Plasma concentration profile [5]: quite smooth, consistent with a target profile
- antidepressant effect ([3]; TRD patients, 40-minute i.v. infusion of 0.20 mg/kg or 0.40 mg/kg (Singh et al.)): rapid onset of robust antidepressant effects
- concentration at 40 min of infusion [6]: 60 to 100 ng/mL
